According to patent US10072023B2, “Diarylethene compounds and uses thereof” (SWITCH MATERIALS, INC., priority 2011, dated 2018):

Experiment: Absorbance at photostationary state (PSS) under simulated sunlight or 365 nm light
Type: physicochemical
Parameters: λ max: unit not given here
Settings: for Absorbance at PSS, 365 nm: 365 nm light source; for Absorbance at PSS, 365 nm / Absorbance at PSS, full / Absorbance at PSS, +UV / λ max: 2.0×10^−5 M in triglyme; for sensitivity index: ratio of PSS under 365 nm light to PSS under full spectrum light (without UV blocking film); for Absorbance at PSS, full: simulated sunlight (QSUN solar simulator), no UV blocking film; for Absorbance at PSS, +UV: simulated sunlight with UV blocking film (cutoff 370 nm); for λ max: wavelength of maximum absorbance in the visible range, ring-closed isoform
Method: Absorbance at a PSS for selected compounds was measured at 2.0×10^−5 M in triglyme in the absence (full) or presence (+UV) of a UV blocking film with a UV cutoff wavelength of 370 nm (10% transmission at 370 nm), using simulated sunlight (QSUN solar simulator) as a light source, or a 365 nm light source; these PSS are reported in Tables 1.5. […] “Switch” refers to the ability (yes or no) of the compound to be reversibly converted under photochromic and electrochromic conditions between a ring-open isomer and ring-closed isomer.
A sensitivity index (SI) is a ratio of the PSS under 365 nm light to the PSS under full spectrum light (without UV blocking film). SI is an indicator of the sensitivity of the compound to the composition of the incident light (a change in the ratio of UV and visible components)—photochemical ring-opening is induced by a portion of the visible light spectrum.
Photostationary State (PSS) UV/Vis spectra are obtained using an OceanOptics™ Spectrophotometer until absorption in the visible region of the spectrum stabilizes. A 2×10^−5M solution of compound in solvent is prepared, and photofaded using visible light until absorption in the visible region of the spectrum stabilizes. The sample is then irradiated with simulated sunlight (QSUN SS-150 Solar Simulator with xenon arc lamp) until the absorption spectrum stabilizes. To obtain PSS in the presence of a UV blocking film, a second sample is prepared and irradiated as described, with a UV blocking film inserted in the light path when irradiating.

## FC1(F)C(c2cc(-c3ccccc3)sc2-c2ccccc2)=C(c2cc(-c3cccs3)sc2-c2cccs2)C(F)(F)C1(F)F [S005, 3′-(2-(2,5-diphenylthiophen-3-yl)-3,3,4,4,5,5-hexafluorocyclopent-1-en-1-yl)-2,2′:5′,2″-terthiophene]
  Absorbance at PSS, 365 nm: 0.195
  sensitivity index: 2.71
  Absorbance at PSS, full: 0.072
  Absorbance at PSS, +UV: 0.028
  λ max: 618

## Cc1ccc(-c2cc(C3=C(c4cc(-c5ccc(C)s5)sc4-c4ccc(C)s4)C(F)(F)C(F)(F)C3(F)F)c(-c3ccc(C)s3)s2)s1 [S007, 3′,3″″-(perfluorocyclopent-1-ene-1,2-diyl)bis(5,5″-dimethyl-2,2′:5′,2″-terthiophene)]
  Absorbance at PSS, 365 nm: 0.353
  sensitivity index: 1.67
  Absorbance at PSS, full: 0.212
  Absorbance at PSS, +UV: 0.154
  λ max: 650

## FC1(F)C(c2c(-c3ccccc3)sc3ccccc23)=C(c2c(-c3ccccc3)sc3ccccc23)C(F)(F)C1(F)F [S014, 3,3′-(perfluorocyclopent-1-ene-1,2-diyl)bis(2-phenylbenzo[b]thiophene)]
  Absorbance at PSS, 365 nm: 0.011
  sensitivity index: 2.75
  Absorbance at PSS, full: 0.004
  Absorbance at PSS, +UV: 0.006
  λ max: 525

## O=C(O)c1ccc(-c2cc(C3=C(c4cc(-c5ccc(C(=O)O)s5)sc4-c4ccc(C(=O)O)s4)C(F)(F)C(F)(F)C3(F)F)c(-c3ccc(C(=O)O)s3)s2)s1 [S024]
  Absorbance at PSS, 365 nm: 0.102
  sensitivity index: 5.10
  Absorbance at PSS, full: 0.02
  Absorbance at PSS, +UV: 0.018
  λ max: 650

## FC1(F)C(c2cc(-c3ccc(Cl)s3)sc2-c2ccc(Cl)s2)=C(c2cc(-c3ccc(Cl)s3)sc2-c2ccc(Cl)s2)C(F)(F)C1(F)F [S026, 3′,3″″-(perfluorocyclopent-1-ene-1,2-diyl)bis(5,5″-dichloro-2,2′:5′,2″-terthiophene)]
  Absorbance at PSS, 365 nm: 0.383
  sensitivity index: 1.53
  Absorbance at PSS, full: 0.251
  Absorbance at PSS, +UV: 0.196
  λ max: 645

## Cc1ccc(-c2sc(-c3cccs3)cc2C2=C(c3cc(-c4cccs4)sc3-c3ccc(C)s3)C(F)(F)C(F)(F)C2(F)F)s1 [S027, 3′,3″″-(perfluorocyclopent-1-ene-1,2-diyl)bis(5-methyl-2,2′:5′,2″-terthiophene)]
  Absorbance at PSS, 365 nm: 0.281
  sensitivity index: 1.80
  Absorbance at PSS, full: 0.156
  Absorbance at PSS, +UV: 0.116
  λ max: 645

## Cc1ccc(-c2ccc(-c3cc(C4=C(c5cc(-c6ccc(-c7ccc(C)s7)s6)sc5-c5ccc(C)s5)C(F)(F)C(F)(F)C4(F)F)c(-c4ccc(C)s4)s3)s2)s1 [S034, 3′,3″″′-(perfluorocyclopent-1-ene-1,2-diyl)bis(5,5″′-dimethyl-2,2′:5′,2″:5″,2″′-quaterthiophene)]
  Absorbance at PSS, 365 nm: 0.468
  sensitivity index: 1.73
  Absorbance at PSS, full: 0.271
  Absorbance at PSS, +UV: 0.246
  λ max: 690

## FC1(F)C(c2nc(-c3ccccc3)sc2-c2ccccc2)=C(c2nc(-c3ccccc3)sc2-c2ccccc2)C(F)(F)C1(F)F [S035, 4,4′-(perfluorocyclopent-1-ene-1,2-diyl)bis(2,5-diphenylthiazole)]
  Absorbance at PSS, 365 nm: 0.416
  sensitivity index: 8.32
  Absorbance at PSS, full: 0.05
  Absorbance at PSS, +UV: 0.016
  λ max: 540

## Cc1sc(-c2cc(C3=C(c4cc(-c5sc(C)c6c5OCCO6)sc4-c4sc(C)c5c4OCCO5)C(F)(F)C(F)(F)C3(F)F)c(-c3sc(C)c4c3OCCO4)s2)c2c1OCCO2 [S036]
  Absorbance at PSS, 365 nm: 0.174
  sensitivity index: 7.25
  Absorbance at PSS, full: 0.024
  Absorbance at PSS, +UV: 0.016
  λ max: 665
